Laboratory results as given in ChEMBL document CHEMBL1201862, “PubChem BioAssay data set” (2004).
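Dose response: 5 concentrations. Exposure: 48 h. Format: 96-well plates. Endpoint: linear interpolation; highest concentration if not reached. At the GI50, growth is halved.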 Activity calls are given as the source filed them. Rule as the data show it: active = GI50 up to about 1.1 µM and inactive = higher.

Legend:
Assay in all cases: NCI tumour cell line growth inhibition, 48 h
RPMI-8226 = tested on: RPMI-8226
HT-29 = tested on: HT-29
EKVX = tested on: EKVX
SF-295 = tested on: SF-295
HOP-92 = tested on: HOP-92
COLO 205 = tested on: COLO 205
MDA-MB-231 = tested on: MDA-MB-231
CAKI-1 = tested on: CAKI-1
HL-60 = tested on: HL-60
CCRF-CEM = tested on: CCRF-CEM
TK-10 = tested on: TK-10
HCT-116 = tested on: HCT-116
IGROV-1 = tested on: IGROV-1
HOP-62 = tested on: HOP-62
MCF7 = tested on: MCF7
RXF 393 = tested on: RXF 393
SNB-75 = tested on: SNB-75
UO-31 = tested on: UO-31
DU-145 = tested on: DU-145
SK-OV-3 = tested on: SK-OV-3
SK-MEL-5 = tested on: SK-MEL-5
MDA-N = tested on: MDA-N
NCI-H522 = tested on: NCI-H522
HCT-15 = tested on: HCT-15
Malme-3M = tested on: Malme-3M
NCI-H460 = tested on: NCI-H460
LOX IMVI = tested on: LOX IMVI
UACC-257 = tested on: UACC-257
BT-549 = tested on: BT-549
OVCAR-5 = tested on: OVCAR-5
NCI/ADR-RES = tested on: NCI/ADR-RES
OVCAR-3 = tested on: OVCAR-3
ACHN = tested on: ACHN
UACC-62 = tested on: UACC-62
MOLT-4 = tested on: MOLT-4
OVCAR-8 = tested on: OVCAR-8
NCI-H23 = tested on: NCI-H23
SNB-19 = tested on: SNB-19
Hs-578T = tested on: Hs-578T
HCC 2998 = tested on: HCC 2998
A549 = tested on: A549
T47D = tested on: T47D
M14 = tested on: M14
MDA-MB-435 = tested on: MDA-MB-435
SW-620 = tested on: SW-620
A498 = tested on: A498
SF-539 = tested on: SF-539
PC-3 = tested on: PC-3
U-251 = tested on: U-251
SN12C = tested on: SN12C
786-0 = tested on: 786-0
K562 = tested on: K562
SK-MEL-2 = tested on: SK-MEL-2
KM12 = tested on: KM12
SR = tested on: SR
SF-268 = tested on: SF-268
SK-MEL-28 = tested on: SK-MEL-28
NCI-H226 = tested on: NCI-H226
OVCAR-4 = tested on: OVCAR-4

CC1C(c2ccccc2)OP(=O)(OC(C#N)c2ccccc2)N1C (stereo not given)
GI50 (RPMI-8226): 33.5 µM (inactive) | GI50 (HT-29): > 100 µM (inactive) | GI50 (EKVX): > 100 µM (inactive) | GI50 (SF-295): > 100 µM (inactive) | GI50 (HOP-92): 89.9 µM (inactive) | GI50 (COLO 205): > 100 µM (inactive) | GI50 (MDA-MB-231): > 100 µM (inactive) | GI50 (CAKI-1): > 100 µM (inactive) | GI50 (HL-60): 27.6 µM (inactive) | GI50 (CCRF-CEM): 29.2 µM (inactive) | GI50 (TK-10): > 100 µM (inactive) | GI50 (HCT-116): > 100 µM (inactive) | GI50 (IGROV-1): > 100 µM (inactive) | GI50 (HOP-62): > 100 µM (inactive) | GI50 (MCF7): 37.6 µM (inactive) | GI50 (RXF 393): > 100 µM (inactive) | GI50 (SNB-75): > 100 µM (inactive) | GI50 (UO-31): 97.3 µM (inactive) | GI50 (DU-145): > 100 µM (inactive) | GI50 (SK-OV-3): > 100 µM (inactive) | GI50 (SK-MEL-5): > 100 µM (inactive) | GI50 (MDA-N): > 100 µM (inactive) | GI50 (NCI-H522): > 100 µM (inactive) | GI50 (HCT-15): > 100 µM | GI50 (Malme-3M): 89.3 µM (inactive) | GI50 (NCI-H460): > 100 µM (inactive) | GI50 (LOX IMVI): 79.6 µM (inactive) | GI50 (UACC-257): 68.9 µM (inactive) | GI50 (BT-549): > 100 µM (inactive) | GI50 (OVCAR-5): > 100 µM (inactive) | GI50 (NCI/ADR-RES): > 100 µM (inactive) | GI50 (OVCAR-3): > 100 µM (inactive) | GI50 (ACHN): > 100 µM (inactive) | GI50 (UACC-62): > 100 µM (inactive) | GI50 (MOLT-4): 37.8 µM (inactive) | GI50 (OVCAR-8): > 100 µM (inactive) | GI50 (NCI-H23): > 100 µM (inactive) | GI50 (SNB-19): > 100 µM (inactive) | GI50 (Hs-578T): > 100 µM (inactive) | GI50 (HCC 2998): 48.4 µM (inactive) | GI50 (A549): > 100 µM (inactive) | GI50 (T47D): 40.8 µM (inactive) | GI50 (M14): 97.7 µM (inactive) | GI50 (MDA-MB-435): 81.1 µM (inactive) | GI50 (SW-620): 97.9 µM (inactive) | GI50 (A498): > 100 µM (inactive) | GI50 (SF-539): > 100 µM (inactive) | GI50 (PC-3): > 100 µM (inactive) | GI50 (U-251): 67.9 µM (inactive) | GI50 (SN12C): > 100 µM (inactive) | GI50 (786-0): > 100 µM (inactive) | GI50 (K562): 39.3 µM (inactive) | GI50 (SK-MEL-2): 48.2 µM (inactive) | GI50 (KM12): > 100 µM (inactive) | GI50 (SR): 91.4 µM (inactive) | GI50 (SF-268): > 100 µM (inactive) | GI50 (SK-MEL-28): > 100 µM (inactive)

C/C(=C\c1ccc(Cl)cc1)C(C)(C)C(=O)O
GI50 (RPMI-8226): > 100 µM (inactive) | GI50 (HT-29): > 100 µM (inactive) | GI50 (EKVX): > 100 µM (inactive) | GI50 (SF-295): > 100 µM (inactive) | GI50 (HOP-92): > 100 µM (inactive) | GI50 (COLO 205): > 100 µM (inactive) | GI50 (MDA-MB-231): > 100 µM (inactive) | GI50 (CAKI-1): > 100 µM (inactive) | GI50 (HL-60): > 100 µM (inactive) | GI50 (CCRF-CEM): 52.5 µM (inactive) | GI50 (TK-10): > 100 µM (inactive) | GI50 (HCT-116): > 100 µM (inactive) | GI50 (IGROV-1): > 100 µM (inactive) | GI50 (HOP-62): > 100 µM (inactive) | GI50 (MCF7): > 100 µM (inactive) | GI50 (RXF 393): > 100 µM (inactive) | GI50 (SNB-75): > 100 µM (inactive) | GI50 (UO-31): > 100 µM (inactive) | GI50 (DU-145): > 100 µM (inactive) | GI50 (SK-OV-3): > 100 µM (inactive) | GI50 (SK-MEL-5): > 100 µM (inactive) | GI50 (MDA-N): > 100 µM (inactive) | GI50 (NCI-H522): > 100 µM (inactive) | GI50 (HCT-15): > 100 µM | GI50 (Malme-3M): > 100 µM (inactive) | GI50 (NCI-H460): > 100 µM (inactive) | GI50 (UACC-257): > 100 µM (inactive) | GI50 (BT-549): > 100 µM (inactive) | GI50 (OVCAR-5): > 100 µM (inactive) | GI50 (NCI/ADR-RES): > 100 µM (inactive) | GI50 (OVCAR-3): > 100 µM (inactive) | GI50 (ACHN): > 100 µM (inactive) | GI50 (UACC-62): > 100 µM (inactive) | GI50 (MOLT-4): > 100 µM (inactive) | GI50 (OVCAR-8): > 100 µM (inactive) | GI50 (NCI-H23): > 100 µM (inactive) | GI50 (SNB-19): > 100 µM (inactive) | GI50 (Hs-578T): > 100 µM (inactive) | GI50 (HCC 2998): > 100 µM (inactive) | GI50 (A549): > 100 µM (inactive) | GI50 (T47D): > 100 µM (inactive) | GI50 (NCI-H226): > 100 µM (inactive) | GI50 (M14): > 100 µM (inactive) | GI50 (MDA-MB-435): > 100 µM (inactive) | GI50 (SW-620): > 100 µM (inactive) | GI50 (A498): > 100 µM (inactive) | GI50 (SF-539): > 100 µM (inactive) | GI50 (PC-3): > 100 µM (inactive) | GI50 (U-251): > 100 µM (inactive) | GI50 (SN12C): > 100 µM (inactive) | GI50 (786-0): > 100 µM (inactive) | GI50 (OVCAR-4): > 100 µM (inactive) | GI50 (K562): 1.95 µM (inactive) | GI50 (SK-MEL-2): > 100 µM (inactive) | GI50 (KM12): > 100 µM (inactive) | GI50 (SR): 3.75 µM (inactive) | GI50 (SF-268): > 100 µM (inactive) | GI50 (SK-MEL-28): > 100 µM (inactive)
